Measurements taken from ChEMBL document CHEMBL4028808, “Design and synthesis of selective CDK8/19 dual inhibitors: Discovery of 4,5-dihydrothieno[3',4':3,4]benzo[1,2-d]isothiazole derivatives” (Bioorg Med Chem, 2017).
Values after ≈ are worked out from the molar mass of the structure shown.

Test system: not listed separately
Assay: Intrinsic clearance in human liver microsomes at 1 umol/l after 15 to 30 mins in presence of NADPH by LC-MS/MS analysis
Assay type: ADME, microsome
Settings: read-out: CLH

Row | Structure (SMILES) | microsomal CLint at 1 µM [µL/min/mg]
1 | CNC(=O)c1ccc(Oc2sc(C(N)=O)c3c2-c2sncc2CC3)cn1 | 23
2 | COCCNC(=O)c1ccc(Oc2sc(C(N)=O)c3c2-c2sncc2CC3)c(C)n1 | 71

The next lines start with the values.

Row | microsomal CLint at 1 µM [µL/min/mg] | Structure (SMILES)
3 | 61 | CC(=O)Nc1ccc(Oc2sc(C(N)=O)c3c2-c2sncc2CC3)cn1
4 | 75 | Cc1ccc(Oc2sc(C(N)=O)c3c2-c2sncc2CC3)cn1
5 | 86 | Cc1ncccc1Oc1sc(C(N)=O)c2c1-c1sncc1CC2
6 | 188 | Cc1cncc(Oc2sc(C(N)=O)c3c2-c2sncc2CC3)c1
7 | 55 | NC(=O)c1sc(Oc2cccnc2)c2c1CCc1cnsc1-2
8 | 65 | Cc1ccncc1Oc1sc(C(N)=O)c2c1-c1sncc1CC2
9 | 101 | NC(=O)c1sc(Oc2ccccn2)c2c1CCc1cnsc1-2
10 | 193 | NC(=O)c1sc(Oc2ccccc2)c2c1CCc1cnsc1-2

Test system: not listed separately
Assay: Aqueous solubility of the compound in DMSO at pH 6.8 by HPLC method
Assay type: physicochemical
Settings: not given

Row | Structure (SMILES) | solubility [µg/mL]
11 | CNC(=O)c1ccc(Oc2sc(C(N)=O)c3c2-c2sncc2CC3)cn1 | 11 (≈ 28.5 µM)
12 | COCCNC(=O)c1ccc(Oc2sc(C(N)=O)c3c2-c2sncc2CC3)c(C)n1 | 6.7 (≈ 15.1 µM)

Other lines, results leading:

Row | solubility [µg/mL] | Structure (SMILES)
13 | 0.72 (≈ 1.86 µM) | CC(=O)Nc1ccc(Oc2sc(C(N)=O)c3c2-c2sncc2CC3)cn1
14 | 23 (≈ 67 µM) | Cc1ccc(Oc2sc(C(N)=O)c3c2-c2sncc2CC3)cn1

Molecular target: CDK8/Cyclin C (Homo sapiens, UniProt P49336)
Sequence (P49336 whole entry): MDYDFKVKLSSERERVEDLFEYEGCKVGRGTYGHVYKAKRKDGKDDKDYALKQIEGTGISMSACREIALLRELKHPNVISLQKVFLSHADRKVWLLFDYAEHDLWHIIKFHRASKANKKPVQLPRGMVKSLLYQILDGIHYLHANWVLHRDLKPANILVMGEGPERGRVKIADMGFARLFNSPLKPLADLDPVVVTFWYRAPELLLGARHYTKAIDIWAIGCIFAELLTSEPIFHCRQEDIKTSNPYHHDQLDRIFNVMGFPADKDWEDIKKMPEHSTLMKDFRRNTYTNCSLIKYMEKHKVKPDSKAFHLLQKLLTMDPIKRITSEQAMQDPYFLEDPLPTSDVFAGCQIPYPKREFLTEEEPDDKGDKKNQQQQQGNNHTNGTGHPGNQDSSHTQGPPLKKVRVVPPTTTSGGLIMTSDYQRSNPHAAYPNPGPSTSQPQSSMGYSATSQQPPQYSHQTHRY
Sequence (P24863 whole entry, further chain): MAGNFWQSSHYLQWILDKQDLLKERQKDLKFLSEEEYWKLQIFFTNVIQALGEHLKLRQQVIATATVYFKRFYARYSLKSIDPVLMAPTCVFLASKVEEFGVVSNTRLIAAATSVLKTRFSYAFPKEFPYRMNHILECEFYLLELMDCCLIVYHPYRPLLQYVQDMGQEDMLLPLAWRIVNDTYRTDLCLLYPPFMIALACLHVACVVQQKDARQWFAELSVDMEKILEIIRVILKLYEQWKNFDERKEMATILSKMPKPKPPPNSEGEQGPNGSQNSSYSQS
Assay: Inhibition of kinase tracer-236 binding to GST-tagged CDK8/CyclinC (unknown origin) after 60 mins by TR-FRET assay
Assay type: protein-complex assay
Settings: not given

Row | Structure (SMILES) | IC50 [nM]
15 | CSc1sc(C(=O)Nc2ccsn2)c2c1-c1sncc1CC2 | 66
16 | CS(=O)(=O)c1sc(C(N)=O)c2c1-c1sncc1CC2 | 63
17 | CNC(=O)c1ccc(Oc2sc(C(N)=O)c3c2-c2sncc2CC3)cn1 | 1.9
18 | COCCNC(=O)c1ccc(Oc2sc(C(N)=O)c3c2-c2sncc2CC3)c(C)n1 | 1.4
19 | CSc1sc(C(=O)Nc2ccon2)c2c1-c1sncc1CC2 | 12
20 | CSc1sc(C(N)=O)c2c1-c1[nH]ncc1CC2 | 1700
21 | CSc1sc(C(=O)Nc2ccccn2)c2c1-c1sncc1CC2 | 180
22 | CSc1sc(C(N)=O)c2c1-c1nn(C)cc1CC2 | > 10000
23 | CSc1sc(C#N)c2c1-c1sncc1CC2 | 23
24 | CSc1sc(C(=O)O)c2c1-c1sncc1CC2 | 9.5
25 | CSc1sc(C(=O)Nc2ccccc2)c2c1-c1sncc1CC2 | 540
26 | CSc1sc(C(N)=O)c2c1-c1snnc1CC2 | 60
27 | CSc1sc(C(=O)Nc2ccn(C)n2)c2c1-c1sncc1CC2 | 22
28 | CNC(=O)c1sc(SC)c2c1CCc1cnsc1-2 | 9.3
29 | Cc1c(Oc2sc(C(N)=O)c3c2-c2sncc2CC3)ccc[n+]1[O-] | 4.4
30 | CSc1sc(C(=O)N(C)C)c2c1-c1sncc1CC2 | 68
31 | CSc1sc(C(N)=O)c2c1-c1c(cnn1C)CC2 | 18
32 | C[S+]([O-])c1sc(C(N)=O)c2c1-c1sncc1CC2 (configuration not stated) | 88
33 | CSc1sc(C(N)=O)c2c1-c1oncc1CC2 | 45

Continued, values first:

Row | IC50 [nM] | Structure (SMILES)
34 | 2.3 | COc1sc(C(N)=O)c2c1-c1sncc1CC2
35 | 0.57 | CC(=O)Nc1ccc(Oc2sc(C(N)=O)c3c2-c2sncc2CC3)cn1
36 | 0.99 | Cc1ccc(Oc2sc(C(N)=O)c3c2-c2sncc2CC3)cn1
37 | 0.47 | Cc1ncccc1Oc1sc(C(N)=O)c2c1-c1sncc1CC2
38 | 5.1 | Cc1cncc(Oc2sc(C(N)=O)c3c2-c2sncc2CC3)c1
39 | 1.5 | NC(=O)c1sc(Oc2cccnc2)c2c1CCc1cnsc1-2
40 | 4.7 | Cc1ccncc1Oc1sc(C(N)=O)c2c1-c1sncc1CC2
41 | 11 | NC(=O)c1sc(Oc2ccccn2)c2c1CCc1cnsc1-2
42 | 0.34 | NC(=O)c1sc(Oc2ccccc2)c2c1CCc1cnsc1-2

Molecular target: Cyclin-C/Cyclin-dependent kinase 19 (Homo sapiens, UniProt Q9BWU1)
Sequence (Q9BWU1 whole entry): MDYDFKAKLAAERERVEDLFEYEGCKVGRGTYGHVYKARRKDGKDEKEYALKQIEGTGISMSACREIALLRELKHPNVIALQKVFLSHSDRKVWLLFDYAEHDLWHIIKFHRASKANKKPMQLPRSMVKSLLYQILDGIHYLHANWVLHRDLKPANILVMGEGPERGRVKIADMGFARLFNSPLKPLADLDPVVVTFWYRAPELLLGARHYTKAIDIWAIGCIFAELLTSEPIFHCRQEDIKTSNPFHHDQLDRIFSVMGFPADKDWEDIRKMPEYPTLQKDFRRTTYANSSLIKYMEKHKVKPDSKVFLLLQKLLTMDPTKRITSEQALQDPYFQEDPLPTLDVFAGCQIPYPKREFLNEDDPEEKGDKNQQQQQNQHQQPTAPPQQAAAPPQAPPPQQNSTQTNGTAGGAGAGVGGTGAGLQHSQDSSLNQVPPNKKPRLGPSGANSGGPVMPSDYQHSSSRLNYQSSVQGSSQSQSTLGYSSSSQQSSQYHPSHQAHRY
Sequence (P24863 whole entry, further chain): as the sequence (P24863 whole entry, further chain) above
Assay: Inhibition of kinase tracer-236 binding to GST-tagged CDK19/CyclinC (unknown origin) after 60 mins by TR-FRET assay
Assay type: protein-complex assay
Settings: not given

Row | Structure (SMILES) | IC50 [nM]
43 | CSc1sc(C(=O)Nc2ccsn2)c2c1-c1sncc1CC2 | 93
44 | CS(=O)(=O)c1sc(C(N)=O)c2c1-c1sncc1CC2 | 110
45 | CNC(=O)c1ccc(Oc2sc(C(N)=O)c3c2-c2sncc2CC3)cn1 | 1
46 | COCCNC(=O)c1ccc(Oc2sc(C(N)=O)c3c2-c2sncc2CC3)c(C)n1 | 1.3
47 | CSc1sc(C(=O)Nc2ccon2)c2c1-c1sncc1CC2 | 15
48 | CSc1sc(C(N)=O)c2c1-c1[nH]ncc1CC2 | 3100
49 | CSc1sc(C(=O)Nc2ccccn2)c2c1-c1sncc1CC2 | 400
50 | CSc1sc(C#N)c2c1-c1sncc1CC2 | 46
51 | CSc1sc(C(=O)O)c2c1-c1sncc1CC2 | 12
52 | CSc1sc(C(=O)Nc2ccccc2)c2c1-c1sncc1CC2 | 700
53 | CSc1sc(C(N)=O)c2c1-c1snnc1CC2 | 130
54 | CSc1sc(C(=O)Nc2ccn(C)n2)c2c1-c1sncc1CC2 | 65
55 | CNC(=O)c1sc(SC)c2c1CCc1cnsc1-2 | 22
56 | Cc1c(Oc2sc(C(N)=O)c3c2-c2sncc2CC3)ccc[n+]1[O-] | 9.3
57 | CSc1sc(C(=O)N(C)C)c2c1-c1sncc1CC2 | 120
58 | CSc1sc(C(N)=O)c2c1-c1c(cnn1C)CC2 | 19
59 | C[S+]([O-])c1sc(C(N)=O)c2c1-c1sncc1CC2 (configuration not stated) | 150
60 | CSc1sc(C(N)=O)c2c1-c1oncc1CC2 | 71

More lines, now with the values ahead:

Row | IC50 [nM] | Structure (SMILES)
61 | 2.8 | COc1sc(C(N)=O)c2c1-c1sncc1CC2
62 | 0.57 | CC(=O)Nc1ccc(Oc2sc(C(N)=O)c3c2-c2sncc2CC3)cn1
63 | 1.3 | Cc1ccc(Oc2sc(C(N)=O)c3c2-c2sncc2CC3)cn1
64 | 0.77 | Cc1ncccc1Oc1sc(C(N)=O)c2c1-c1sncc1CC2
65 | 9.2 | Cc1cncc(Oc2sc(C(N)=O)c3c2-c2sncc2CC3)c1
66 | 2.7 | NC(=O)c1sc(Oc2cccnc2)c2c1CCc1cnsc1-2
67 | 6.6 | Cc1ccncc1Oc1sc(C(N)=O)c2c1-c1sncc1CC2
68 | 25 | NC(=O)c1sc(Oc2ccccn2)c2c1CCc1cnsc1-2
69 | 0.55 | NC(=O)c1sc(Oc2ccccc2)c2c1CCc1cnsc1-2

Molecular target: Cyclin-dependent kinase 8 (Homo sapiens, UniProt P49336)
Sequence (P49336 whole entry): as the sequence (P49336 whole entry) above
Assay: Inhibition of CDK8 in human SW480 cells assessed as decrease in STAT1 phosphorylation at Ser727 after 2 hrs by Western blot method
Settings: not given

Row | Structure (SMILES) | EC50 [nM]
70 | CSc1sc(C(=O)Nc2ccsn2)c2c1-c1sncc1CC2 | 620
71 | CS(=O)(=O)c1sc(C(N)=O)c2c1-c1sncc1CC2 | 220
72 | CNC(=O)c1ccc(Oc2sc(C(N)=O)c3c2-c2sncc2CC3)cn1 | 2.6
73 | COCCNC(=O)c1ccc(Oc2sc(C(N)=O)c3c2-c2sncc2CC3)c(C)n1 | 0.35
74 | CSc1sc(C(=O)Nc2ccon2)c2c1-c1sncc1CC2 | 890
75 | CSc1sc(C(N)=O)c2c1-c1[nH]ncc1CC2 | 1300
76 | CSc1sc(C(=O)Nc2ccccn2)c2c1-c1sncc1CC2 | 2800
77 | CSc1sc(C(N)=O)c2c1-c1nn(C)cc1CC2 | > 10000
78 | CSc1sc(C#N)c2c1-c1sncc1CC2 | 490
79 | CSc1sc(C(=O)O)c2c1-c1sncc1CC2 | > 10000
80 | CSc1sc(C(=O)Nc2ccccc2)c2c1-c1sncc1CC2 | > 10000
81 | CSc1sc(C(N)=O)c2c1-c1snnc1CC2 | 550
82 | CSc1sc(C(=O)Nc2ccn(C)n2)c2c1-c1sncc1CC2 | 1400
83 | CNC(=O)c1sc(SC)c2c1CCc1cnsc1-2 | 140
84 | Cc1c(Oc2sc(C(N)=O)c3c2-c2sncc2CC3)ccc[n+]1[O-] | 8.3
85 | CSc1sc(C(=O)N(C)C)c2c1-c1sncc1CC2 | 1700
86 | CSc1sc(C(N)=O)c2c1-c1c(cnn1C)CC2 | 25
87 | C[S+]([O-])c1sc(C(N)=O)c2c1-c1sncc1CC2 (configuration not stated) | 70
88 | CSc1sc(C(N)=O)c2c1-c1oncc1CC2 | 200

Continued, values first:

Row | EC50 [nM] | Structure (SMILES)
89 | 9.1 | COc1sc(C(N)=O)c2c1-c1sncc1CC2
90 | 0.4 | CC(=O)Nc1ccc(Oc2sc(C(N)=O)c3c2-c2sncc2CC3)cn1
91 | 3 | Cc1ccc(Oc2sc(C(N)=O)c3c2-c2sncc2CC3)cn1
92 | 2 | Cc1ncccc1Oc1sc(C(N)=O)c2c1-c1sncc1CC2
93 | 28 | Cc1cncc(Oc2sc(C(N)=O)c3c2-c2sncc2CC3)c1
94 | 3 | NC(=O)c1sc(Oc2cccnc2)c2c1CCc1cnsc1-2
95 | 16 | Cc1ccncc1Oc1sc(C(N)=O)c2c1-c1sncc1CC2
96 | 66 | NC(=O)c1sc(Oc2ccccn2)c2c1CCc1cnsc1-2
97 | 0.77 | NC(=O)c1sc(Oc2ccccc2)c2c1CCc1cnsc1-2
